Where a name gives a salt, the structure may show the parent alone. Read-outs that look alike come from different tables or passages of the source.
How the values were obtained:
rHCoVs-OC43 = assay: microbe, parasite or virus in culture; assay type: cell-based
[1] = Cell viability assay (MTT) in HRT-18 cells; conditions: human, CC50 (μM)
HRT-18 cells = assay: Cell viability assay (MTT) in HRT-18 cells
SARS-CoV-2 [2] = assay: microbe, parasite or virus in culture; assay type: cell-based; conditions: for EC50: Severe acute respiratory syndrome coronavirus 2, Huh7.5, 48 h, read-out: SARS-CoV-2 EC50
[3] = Cell viability assay (MTT) in Huh7.5 cells; assay type: cell-based, human; conditions: human, Huh7.5 cells, Huh7.5 (B), read-out: SARS-CoV-2 CC50
Method: (§1) Cell viability was monitored by a mitochondrial activity test using methyl-thiazolyl-tetrazolium (MTT, Sigma). After 48 hours of drug treatment, cells were treated with 1 mg/ml of MTT during 3 hours at 37° C. The supernatants were removed and the MTT crystals were dissolved using DMSO and a shaker. The absorbance was read with a Tecan Spark at 570 nm with reference at 650 nm.
(§2) Only the most promising molecules or those studied in synergy were tested in Calu3 cells.

[4] = Cell viability assay (MTT) in Calu3 cells; assay type: cell-based, Human; conditions: human, Calu3 cells, Calu3 (C), read-out: SARS-CoV-2 CC50
Method: as §1, §2

SARS-CoV-2 [5] = assay: Drug tests in SARS-CoV-2 model, Calu3 cells, viral titration by plaque assay in Vero E6; conditions: read-out: SARS-CoV-2 EC50; Calu3 (C), MOI 0.05, 48 h treatment
[6] = 48 h, drug 2 alone (fast synergy screening table), read-out: IC50
[7] = drug 2 alone (fast synergy screening table), read-out: IC50
[8] = drug alone, HRT-18 cells, MOI 0.025, 48 h treatment, decrease of Rluc, read-out: EC50
[9] = drug 2 alone (fast synergy screening table)
[10] = drug alone, HRT-18 cells, 48 h treatment, MTT

Row | Compound | IC50 (rHCoVs-OC43; [6]) [µM] | EC50 (rHCoVs-OC43; [8]) [µM] | CC50 at 48 h [1, 9] [µM] | CC50 at 48 h [1, 10] [µM] | other results
1 | C=C1/C(=C\C=C2/CCC[C@]3(C)[C@@H]([C@H](C)CCCC(C)C)CC[C@@H]23)C[C@@H](O)C[C@@H]1O [Alfacalcidol] | 1.7 | 1.7 | > 10 | > 10 | IC50 (rHCoVs-OC43; [7]): 1.7 µM
2 | CCOC(=O)C1=C(COCCN)NC(C)=C(C(=O)OC)C1c1ccccc1Cl (centres unmarked) [Amlodipine benzenesulphonate] | 5.2 | 5.2 | > 10 | > 10 | IC50 (rHCoVs-OC43; [7]): 5.2 µM
3 | CCN(CC)Cc1cc(Nc2ccnc3cc(Cl)ccc23)ccc1O [Amodiaquine] | 1.2 | 1.2 | > 10 | > 10 | IC50 (rHCoVs-OC43; [7]): 1.2 µM
4 | CCN(CC)CCCC(C)Nc1ccnc2cc(Cl)ccc12 (centres unmarked) [Chloroquine] | 0.066 | 0.066 | – | – | –
5 | CN(C)CC/C=C1/c2ccccc2Sc2ccc(Cl)cc21 [Chlorprothixene] | – | 7.5 | – | > 10 | –
6 | CCCC(=O)O[C@]1(C(=O)CCl)[C@H](C)C[C@@H]2[C@@H]3CCC4=CC(=O)C=C[C@]4(C)[C@]3(F)C(=O)C[C@@]21C [Clobetasone butyrate] | – | 8.5 | – | – | CC50 (HRT-18 cells; [10]): > 10 µM
7 | CC(C)/N=c1\cc2n(-c3ccc(Cl)cc3)c3ccccc3nc-2cc1Nc1ccc(Cl)cc1 [Clofazimine] | 1.8 | 1.8 | > 10 | > 10 | IC50 (rHCoVs-OC43; [7]): 1.8 µM
8 | CCN(CC)CCOc1ccc(C(=C(Cl)c2ccccc2)c2ccccc2)cc1 [Clomiphene citrate] | – | – | > 10 | > 10 | –
9 | CN(C)CCCN1c2ccccc2CCc2ccc(Cl)cc21 [Clomipramine hydrochloride] | – | – | – | > 10 | –
10 | C#C[C@]1(O)CC[C@H]2[C@@H]3CCC4=Cc5oncc5C[C@]4(C)[C@H]3CC[C@@]21C [Danazol] | 1 | 1 | > 10 | > 10 | IC50 (rHCoVs-OC43; [7]): 1 µM; EC50 (SARS-CoV-2 [2]): 0.83 µM; CC50 at 48 h [3]: > 10 µM
11 | CN(C)[C@@H](CCOc1cccc2ccccc12)c1ccccc1 [Dapoxetine hydrochloride] | – | 4.7 | – | > 10 | –
12 | C[C@H]1O[C@@H](O[C@H]2[C@@H](O)C[C@H](O[C@H]3[C@@H](O)C[C@H](O[C@H]4CC[C@@]5(C)[C@H](CC[C@@H]6[C@@H]5CC[C@]5(C)[C@@H](C7=CC(=O)OC7)CC[C@]65O)C4)O[C@@H]3C)O[C@@H]2C)C[C@H](O)[C@@H]1O [Digitoxin] | 0.021 | 0.021 | 0.08 | 0.08 | –
13 | C[C@H]1O[C@@H](O[C@H]2[C@@H](O)C[C@H](O[C@H]3[C@@H](O)C[C@H](O[C@H]4CC[C@@]5(C)[C@H](CC[C@@H]6[C@@H]5C[C@@H](O)[C@]5(C)[C@@H](C7=CC(=O)OC7)CC[C@]65O)C4)O[C@@H]3C)O[C@@H]2C)C[C@H](O)[C@@H]1O [Digoxin] | – | 0.028 | – | – | IC50 (rHCoVs-OC43; 48 h): 0.028 µM
14 | OCCN(CCO)c1nc(N2CCCCC2)c2nc(N(CCO)CCO)nc(N3CCCCC3)c2n1 [Dipyridamole] | – | 4.1 | – | > 10 | –
15 | CCN(CC)C(=S)SSC(=S)N(CC)CC [Disulfiram] | – | 0.18 | – | 0.23 | –
16 | COc1cc2nc(N3CCN(C(=O)C4COc5ccccc5O4)CC3)nc(N)c2cc1OC (centres unmarked) [Doxazosin mesylate] | – | 3.2 | – | > 10 | –
17 | CNCC[C@H](Oc1cccc2ccccc12)c1cccs1 [Duloxetine hydrochloride] | – | – | – | > 10 | EC50 (rHCoVs-OC43; HRT-18, 48 h): 4.8 µM
18 | Cn1cc(C2=C(c3cn(C4CCN(Cc5ccccn5)CC4)c4ccccc34)C(=O)NC2=O)c2ccccc21 [Enzastaurin hydrochloride] | – | 2.8 | – | > 10 | –
19 | CCCCCCCCc1ccc(CCC(N)(CO)CO)cc1 [Fingolimod hydrochloride] | 3.9 | 3.9 | > 10 | 10 | IC50 (rHCoVs-OC43; [7]): 3.9 µM
20 | CCCCCCCCCC(=O)OC1(c2ccc(Cl)cc2)CCN(CCCC(=O)c2ccc(F)cc2)CC1 [Haloperidol decanoate] | – | > 10 | – | > 10 | –
21 | Oc1c(Cl)cc(Cl)c(Cl)c1Cc1c(O)c(Cl)cc(Cl)c1Cl [Hexachlorophene] | 0.39 | 0.39 | – | – | –
22 | COC(=O)C1=C(C)NC(C)=C(C(=O)OCCN2CCN(C(c3ccccc3)c3ccccc3)CC2)C1c1cccc([N+](=O)[O-])c1 (centres unmarked) [Manidipine dihydrochloride] | 4.5 | 4.5 | > 10 | > 10 | IC50 (rHCoVs-OC43; [7]): 4.5 µM

Row | Compound | IC50 (rHCoVs-OC43; [6]) [µM] | EC50 (rHCoVs-OC43; [8]) [µM] | CC50 at 48 h [1, 9] [µM] | CC50 at 48 h [1, 10] [µM] | other results
23 | Cc1c(O)cccc1C(=O)N[C@@H](CSc1ccccc1)[C@H](O)CN1C[C@H]2CCCC[C@H]2C[C@H]1C(=O)NC(C)(C)C [Nelfinavir mesylate] | 2.6 | 2.6 | > 10 | > 10 | IC50 (rHCoVs-OC43; [7]): 2.6 µM; EC50 (SARS-CoV-2 [2]): 1.7 µM; CC50 at 48 h [3]: > 10 µM; CC50 at 48 h [4]: > 10 µM; EC50 (SARS-CoV-2 [5]): 0.11 µM
24 | COC(=O)C1=C(C)NC(C)=C(C(=O)OCC(C)C)C1c1ccccc1[N+](=O)[O-] (centres unmarked) [Nisoldipine] | – | 2.35 | – | > 10 | –
25 | CC(=O)Oc1ccccc1C(=O)Nc1ncc([N+](=O)[O-])s1 [Nitazoxanide] | 1.33 | 1.33 | > 10 | > 10 | EC50 (SARS-CoV-2 [2]): 0.54 µM; CC50 at 48 h [3]: > 10 µM
26 | CCCCCCCCCCC[C@@H](C[C@@H]1OC(=O)[C@H]1CCCCCC)OC(=O)[C@H](CC(C)C)NC=O [Orlistat] | – | 7.3 | – | > 10 | –
27 | C[C@@H]1O[C@@H](O[C@H]2C[C@@H](O)[C@]3(CO)[C@H]4[C@H](O)C[C@]5(C)[C@@H](C6=CC(=O)OC6)CC[C@]5(O)[C@@H]4CC[C@]3(O)C2)[C@H](O)[C@H](O)[C@H]1O [Ouabain] | 0.016 | 0.016 | 0.028 | 0.028 | –
28 | CC(C)COc1ccc(CNC(=O)N(Cc2ccc(F)cc2)C2CCN(C)CC2)cc1 [Pimanavserin] | – | 6 | – | – | CC50 (HRT-18 cells; [10]): > 10 µM
29 | O=C(Nc1ccc(Oc2ccc(Cl)cc2)c(Cl)c1)c1cc(I)cc(I)c1O [Rafoxanide] | – | 6.9 | – | > 10 | –
30 | NC(=O)c1ncn([C@@H]2O[C@H](CO)[C@@H](O)[C@H]2O)n1 [Ribavirin] | – | 1 | > 10 | > 10 | IC50 (rHCoVs-OC43): 1 µM; IC50 (rHCoVs-OC43; 48 h): 1 µM
31 | Cc1cc(/C=C/C#N)cc(C)c1Nc1ccnc(Nc2ccc(C#N)cc2)n1 [Rilpivirine] | – | > 10 | – | 10 | –
32 | Cc1nc2n(c(=O)c1CCN1CCC(c3noc4cc(F)ccc34)CC1)CCCC2 [Risperidone] | – | – | – | > 10 | –
33 | CN[C@H]1CC[C@@H](c2ccc(Cl)c(Cl)c2)c2ccccc21 [Sertraline hydrochloride] | – | – | > 10 | > 10 | –
34 | C=CC[C@@H]1/C=C(\C)C[C@H](C)C[C@H](OC)[C@H]2O[C@@](O)(C(=O)C(=O)N3CCCC[C@H]3C(=O)O[C@H](/C(C)=C/[C@@H]3CC[C@@H](O)[C@H](OC)C3)[C@H](C)[C@@H](O)CC1=O)[C@H](C)C[C@@H]2OC [Tacrolimus hydrate] | – | 3.3 | – | > 10 | –
35 | CC/C(=C(\c1ccccc1)c1ccc(OCCN(C)C)cc1)c1ccccc1 [Tamoxifen] | – | – | – | > 10 | –
36 | CSc1ccc2c(c1)N(CCC1CCCCN1C)c1ccccc1S2 (centres unmarked) [Thioridazine hydrochloride] | – | – | > 10 | > 10 | –
37 | Clc1ccc(C(Cn2ccnc2)OCc2ccsc2Cl)c(Cl)c1 (centres unmarked) [Tioconazole] | – | – | – | > 10 | EC50 (rHCoVs-OC43; HRT-18, 48 h): 4.1 µM
38 | CN(C)CCOc1ccc(/C(=C(/CCCl)c2ccccc2)c2ccccc2)cc1 [Toremifene Citrate] | – | 2.6 | > 10 | > 10 | IC50 (rHCoVs-OC43; 48 h): 2.6 µM
39 | CN1CCN(CCCN2c3ccccc3Sc3ccc(C(F)(F)F)cc32)CC1 [Trifluoperazine dihydrochloride] | 2.9 | 2.9 | > 10 | > 10 | IC50 (rHCoVs-OC43; [7]): 2.9 µM; EC50 (SARS-CoV-2 [2]): > 10 µM; inhibitory effect on viral replication (SARS-CoV-2 [2]; drug alone, SARS-CoV-2, words): did not show any significant inhibition of viral replication; CC50 at 48 h [3]: > 10 µM
40 | Cc1ccc(Sc2ccccc2N2CCNCC2)c(C)c1 [Vortioxetine hydrobromide] | – | 2.4 | – | > 10 | –
41 | Cc1ccc(Sc2ccccc2N2CCNCC2)c(C)c1 [Vortioxetine] | 2.4 | – | > 10 | – | IC50 (rHCoVs-OC43; [7]): 2.4 µM
42 | CN(C)CCCN1c2ccccc2Sc2ccc(Cl)cc21 [chlorpromazine] | – | 5.1 | – | > 10 | –
43 | Benproperine phosphate | – | 5.6 | – | – | CC50 (HRT-18 cells; [10]): > 10 µM
44 | Monesin sodium sulfate | – | 0.029 | – | – | IC50 (rHCoVs-OC43; [7]): 0.029 µM; CC50 (HRT-18 cells; [9]): 0.9 µM; CC50 (HRT-18 cells; [10]): 0.9 µM

From patent publication US20250057819A1, “DRUG COMBINATIONS FOR INHIBITING CORONAVIRUS REPLICATION” (priority 2021, published 2025)
